The source of these data is US7109243B2 (IRM LLC, priority 2003, dated 2006).

One assay has as its target T1, Cathepsin K (Homo sapiens, UniProt P43235).
T1 sequence (P43235 115-329): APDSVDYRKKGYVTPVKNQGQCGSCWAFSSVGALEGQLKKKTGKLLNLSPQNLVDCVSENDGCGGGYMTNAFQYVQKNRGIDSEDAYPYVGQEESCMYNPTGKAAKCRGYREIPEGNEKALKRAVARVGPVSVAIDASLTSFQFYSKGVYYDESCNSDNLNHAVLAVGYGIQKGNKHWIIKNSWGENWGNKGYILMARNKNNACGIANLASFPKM
Description: Cathepsin K inhibition assay (fluorogenic peptide substrate); selectivity ratio vs cathepsin S. Type of assay: biochemical. The settings on record: ratio of cathepsin K inhibition constant to cathepsin S inhibition constant; Table II. In outline:
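Inhibition constants for competitive inhibitors come from apparent values fitted to enzyme progress curves. Substrate, acetyl-Lys-His-Pro-Lys-aminocarbamoylcoumarin (40 μM final), starts the reaction; fluorescence rise read at 380 nm excitation, 450 nm emission. Selectivity ratio: other cathepsin constant over cathepsin S constant.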

For a further assay, the target named is Cathepsin S (Homo sapiens, UniProt P25774). Put plainly: Cathepsin S inhibition assay (fluorogenic peptide substrate). The settings on record: Table II, compounds of Formula I; read-out: Ki Cat. S. Type of assay: biochemical. An outline of the steps:
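Ki values come from nonlinear fitting of inhibited hydrolysis rates, taking free and total inhibitor concentrations as equal. Rates measured as rising fluorescence at 380/450 nm after reaction start with 50 μM final acetyl-HPVK-aminocarbamoylcoumarin.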

pKi: −log10 of the molar value.

Chain of Cathepsin S (P25774 115-331, species assumed): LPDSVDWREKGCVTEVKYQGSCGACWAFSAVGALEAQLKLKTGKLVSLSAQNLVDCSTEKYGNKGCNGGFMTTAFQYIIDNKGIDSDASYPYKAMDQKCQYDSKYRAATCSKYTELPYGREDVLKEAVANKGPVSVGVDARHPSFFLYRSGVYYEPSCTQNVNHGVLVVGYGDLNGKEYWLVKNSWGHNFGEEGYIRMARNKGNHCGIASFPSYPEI

Take `COc1ccc(NCCNC(=O)[C@H](CC2CCCCC2)NC(=O)c2sc(-c3ccc(C(F)(F)F)cc3)nc2C)cc1` [Compound 188, (S)-4-Methyl-2-(4-trifluoromethyl-phenyl)-thiazole-5-carboxylic acid {2-cyclohexyl-1-[2-(4-methoxy-phenylamino)-ethylcarbamoyl]-ethyl}-amide]: on Cathepsin K, the “Selectivity for Cat. S over Cat. K” value was “+++ (+++, >1000)”. Besides, on Cathepsin S, the pKi is above 7.00.

With `COc1ccc(NCCNC(=O)[C@H](CC2CCCCC2)NC(=O)c2cc(-c3ccc(Cl)cc3)cs2)cc1` [Compound 189, (S)-4-(4-Chloro-phenyl)-thiophene-2-carboxylic acid {2-cyclohexyl-1-[2-(4-methoxy-phenylamino)-ethylcarbamoyl]-ethyl}-amide], the “Selectivity for Cat. S over Cat. K” value at Cathepsin K is reported as “++ (++, >100)”. The pKi at Cathepsin S was above 7.00.

Consider `COc1ccc(NCCNC(=O)[C@H](CC2CCCCC2)NC(=O)c2nc(C)oc2C(F)(F)F)cc1` [Compound 190, (S)-2-Methyl-5-trifluoromethyl-oxazole-4-carboxylic acid {2-cyclohexyl-1-[2-(4-methoxy-phenylamino)-ethylcarbamoyl]-ethyl}-amide], for which, on Cathepsin K, the “Selectivity for Cat. S over Cat. K” value is “+++ (+++, >1000)”. For the same compound, on Cathepsin S, the negative-log Ki (pKi) is above 7.00.

With `COc1ccc(NCCNC(=O)[C@H](CC2CCCCC2)NC(=O)c2cc(-c3ccc(OC)cc3)cs2)cc1` [Compound 191, (S)-4-(4-Methoxy-phenyl)-thiophene-2-carboxylic acid {2-cyclohexyl-1-[2-(4-methoxy-phenylamino)-ethylcarbamoyl]-ethyl}-amide], the “Selectivity for Cat. S over Cat. K” value at Cathepsin K is “+ (+, >10)”. Besides, the negative-log Ki (pKi) on Cathepsin S was above 7.00.

Consider `COc1ccc(NCCNC(=O)[C@H](CC2CCCCC2)NC(=O)[C@@H](C)c2ccccc2)cc1` [Compound 192, N-{2-Cyclohexyl-1-(S)-[2-(4-methoxy-phenylamino)-ethylcarbamoyl]-ethyl}-2-(S)-phenyl-propionamide], for which the “Selectivity for Cat. S over Cat. K” value on Cathepsin K is given as “+++ (+++, >1000)”. Besides, at Cathepsin S, the pKi is above 7.00.

For the compound `COc1ccc(NCCNC(=O)[C@H](CC2CCCCC2)NC(=O)c2ccc(-c3cc(C(F)(F)F)ccc3Cl)o2)cc1` [Compound 193, (S)-5-(2-Chloro-5-trifluoromethyl-phenyl)-furan-2-carboxylic acid {2-cyclohexyl-1-[2-(4-methoxy-phenylamino)-ethylcarbamoyl]-ethyl}-amide], the “Selectivity for Cat. S over Cat. K” value on Cathepsin K was “++ (++, >100)”. Besides, the pKi at Cathepsin S was above 7.00.

For `O=C(N[C@@H](CC1CCCCC1)C(=O)NCCNc1ccc(OC(F)(F)F)cc1)c1ccc(-c2ccccc2Cl)cc1` [Compound 194, (S)-2′-Chloro-biphenyl-4-carboxylic acid {2-cyclohexyl-1-[2-(4-trifluoromethoxy-phenylamino)-ethylcarbamoyl]-ethyl}-amide], the “Selectivity for Cat. S over Cat. K” value on Cathepsin K was “+ (+, >10)”. Moreover, the pKi on Cathepsin S was above 6.00.

As to `O=C(N[C@@H](CC1CCCCC1)C(=O)NCCNc1ccc(OC(F)(F)F)cc1)c1ccc(-c2cccc(F)c2)cc1` [Compound 198, (S)-3′-Fluoro-biphenyl-4-carboxylic acid {2-cyclohexyl-1-[2-(4-trifluoromethoxy-phenylamino)-ethylcarbamoyl]-ethyl}-amide], at Cathepsin K, the “Selectivity for Cat. S over Cat. K” value is on record as “+ (+, >10)”. On Cathepsin S, the negative logarithm of the Ki (pKi) is above 6.00.

Regarding `COc1ccc(NCCNC(=O)[C@H](CC2CCCCC2)NC(=O)c2cccc(CN)c2)cc1` [Compound 199, (S)-3-Aminomethyl-N-{2-cyclohexyl-1-[2-(4-methoxy-phenylamino)-ethylcarbamoyl]-ethyl}-benzamide], the “Selectivity for Cat. S over Cat. K” value at Cathepsin K is on record as “++ (++, >100)”. Moreover, the pKi on Cathepsin S is above 6.00.

Take `O=C(N[C@@H](CC1CCCCC1)C(=O)NCCNc1ccc(OC(F)(F)F)cc1)c1cccc(CN2CCOCC2)c1` [Compound 200, (S)-N-{2-Cyclohexyl-1-[2-(4-trifluoromethoxy-phenylamino)-ethylcarbamoyl]-ethyl}-3-morpholin-4-ylmethyl-benzamide]: the “Selectivity for Cat. S over Cat. K” value at Cathepsin K is given as “+ (+, >10)”. For the same compound, the pKi on Cathepsin S was above 7.00.

`O=C(N[C@@H](CC1CCCCC1)C(=O)NCCNc1ccc(OC(F)(F)F)cc1)c1ccc(-c2ccccc2F)s1` [Compound 201, (S)-5-(2-Fluoro-phenyl)-thiophene-2-carboxylic acid {2-cyclohexyl-1-[2-(4-trifluoromethoxy-phenylamino)-ethylcarbamoyl]-ethyl}-amide]: the “Selectivity for Cat. S over Cat. K” value on Cathepsin K was “++ (++, >100)”. The negative-log Ki (pKi) on Cathepsin S is above 7.00.

`COc1ccc(NCCNC(=O)[C@H](CCCC2CCCCC2)NC(=O)c2cccc(C)c2)cc1` [Compound 203, (S)-N-{4-Cyclohexyl-1-[2-(4-methoxy-phenylamino)-ethylcarbamoyl]-butyl}-3-methyl-benzamide]: on Cathepsin K, the “Selectivity for Cat. S over Cat. K” value is reported as “+++ (+++, >1000)”. The pKi on Cathepsin S was above 7.00.

As for `O=C(N[C@@H](CC1CCCCC1)C(=O)NCCNc1ccc(OC(F)(F)F)cc1)c1ccc(-c2ccc(C(F)(F)F)cc2)s1` [Compound 205, (S)-5-(4-Trifluoromethyl-phenyl)-thiophene-2-carboxylic acid {2-cyclohexyl-1-[2-(4-trifluoromethoxy-phenylamino)-ethylcarbamoyl]-ethyl}-amide], the “Selectivity for Cat. S over Cat. K” value at Cathepsin K is on record as “++ (++, >100)”. For the same compound, the negative-log Ki (pKi) at Cathepsin S was above 7.00.

As to `COc1ccc(NCCNC(=O)[C@H](CCc2ccccc2)NC(=O)c2cccc(C)c2)cc1` [Compound 206, (S)-N-{1-[2-(4-Methoxy-phenylamino)-ethylcarbamoyl]-3-phenyl-propyl}-3-methyl-benzamide], the “Selectivity for Cat. S over Cat. K” value on Cathepsin K is recorded as “++ (++, >100)”. Also, at Cathepsin S, the pKi is above 6.00.

In the case of `O=C(N[C@@H](CC1CCCCC1)C(=O)NCCNc1ccc(OC(F)(F)F)cc1)c1ccc(-c2ccc(OC(F)(F)F)cc2)s1` [Compound 207, (S)-5-(4-Trifluoromethoxy-phenyl)-thiophene-2-carboxylic acid {2-cyclohexyl-1-[2-(4-trifluoromethoxy-phenylamino)-ethylcarbamoyl]-ethyl}-amide], the “Selectivity for Cat. S over Cat. K” value on Cathepsin K was “++ (++, >100)”. The pKi at Cathepsin S is above 6.00.

`COc1ccc(NCCNC(=O)[C@H](CC=Cc2ccccc2)NC(=O)c2cccc(C)c2)cc1` [Compound 208, (S)-N-{1-[2-(4-Methoxy-phenylamino)-ethylcarbamoyl]-4-phenyl-but-3-enyl}-3-methyl-benzamide]: the “Selectivity for Cat. S over Cat. K” value on Cathepsin K is on record as “+++ (+++, >1000)”. In addition, the negative logarithm of the Ki (pKi) on Cathepsin S is above 7.00.

On to `O=C(N[C@@H](CC1CCCCC1)C(=O)NCCNc1ccc(OC(F)(F)F)cc1)c1ccc(-c2cccc(OC(F)(F)F)c2)s1` [Compound 209, (S)-5-(3-Trifluoromethoxy-phenyl)-thiophene-2-carboxylic acid {2-cyclohexyl-1-[2-(4-trifluoromethoxy-phenylamino)-ethylcarbamoyl]-ethyl}-amide], for which the “Selectivity for Cat. S over Cat. K” value at Cathepsin K is listed as “+++ (+++, >1000)”. Further, the negative logarithm of the Ki (pKi) at Cathepsin S was above 7.00.

On to `COc1ccccc1-c1ccc(C(=O)N[C@@H](CC2CCCCC2)C(=O)NCCNc2ccc(OC(F)(F)F)cc2)o1` [Compound 210, (S)-5-(2-Methoxy-phenyl)-furan-2-carboxylic acid {2-cyclohexyl-1-[2-(4-trifluoromethoxy-phenylamino)-ethylcarbamoyl]-ethyl}-amide], for which, on Cathepsin K, the “Selectivity for Cat. S over Cat. K” value is listed as “++ (++, >100)”. Further, the pKi on Cathepsin S was above 7.00.

`COc1ccc(NCCNC(=O)C(NC(=O)c2cccc(C)c2)c2ccc(OC)cc2)cc1` (stereo not shown) [Compound 211, N-{(4-Methoxy-phenyl)-[2-(4-methoxy-phenylamino)-ethylcarbamoyl]-methyl}-3-methyl-benzamide]: the “Selectivity for Cat. S over Cat. K” value at Cathepsin K is “++ (++, >100)”. In addition, at Cathepsin S, the negative-log Ki (pKi) is above 6.00.

As to `O=C(N[C@@H](CC1CCCCC1)C(=O)NCCNc1ccc(OC(F)(F)F)cc1)c1ccc(-c2ccccc2F)o1` [Compound 212, (S)-5-(2-Fluoro-phenyl)-furan-2-carboxylic acid {2-cyclohexyl-1-[2-(4-trifluoromethoxy-phenylamino)-ethylcarbamoyl]-ethyl}-amide], at Cathepsin K, the “Selectivity for Cat. S over Cat. K” value is “++ (++, >100)”. The pKi at Cathepsin S is above 7.00.

As for `O=C(N[C@@H](CC1CCCCC1)C(=O)NCCNc1ccc(OC(F)(F)F)cc1)c1ccc(-c2ccc(C(F)(F)F)cc2)o1` [Compound 213, (S)-5-(4-Trifluoromethyl-phenyl)-furan-2-carboxylic acid {2-cyclohexyl-1-[2-(4-trifluoromethoxy-phenylamino)-ethylcarbamoyl]-ethyl}-amide], the “Selectivity for Cat. S over Cat. K” value on Cathepsin K was “+++ (+++, >1000)”. Also, on Cathepsin S, the negative-log Ki (pKi) is above 7.00.

In the case of `COc1ccc(NCCNC(=O)C(NC(=O)c2cccc(C)c2)c2ccccc2OCc2ccccc2)cc1` (stereo not shown) [Compound 214, N-{(2-Benzyloxy-phenyl)-[2-(4-methoxy-phenylamino)-ethylcarbamoyl]-methyl}-3-methyl-benzamide], at Cathepsin K, the “Selectivity for Cat. S over Cat. K” value is recorded as “+++ (+++, >1000)”. For the same compound, the pKi at Cathepsin S is above 7.00.

Consider `O=C(N[C@@H](CC1CCCCC1)C(=O)NCCNc1ccc(OC(F)(F)F)cc1)c1ccc(-c2ccc(OC(F)(F)F)cc2)o1` [Compound 215, (S)-5-(4-Trifluoromethoxy-phenyl)-furan-2-carboxylic acid {2-cyclohexyl-1-[2-(4-trifluoromethoxy-phenylamino)-ethylcarbamoyl]-ethyl}-amide], for which, on Cathepsin K, the “Selectivity for Cat. S over Cat. K” value is “+++ (+++, >1000)”. Besides, the negative-log Ki (pKi) on Cathepsin S is above 7.00.

Usually pKi stands for the Ki on a negative log10 scale, so that one unit is a factor of ten.
